Assay results taken from ChEMBL document CHEMBL1130844, “Synthesis and NK1 receptor antagonistic activity of (+/-)-1-acyl-3-(3,4- dichlorophenyl)-3-[2-(spiro-substituted piperidin-1'-yl)ethyl]piperidines” (Bioorg Med Chem Lett, 1998).

How the values were obtained:
Substance-P receptor = Substance-P receptor (Cavia porcellus, UniProt P30547); experiment: Neurokinin (NK1) receptor antagonistic activity was evaluated.; format: functional
Cavia porcellus = experiment: Inhibitory activity of substance P-induced bronchoconstriction in guinea pigs upon intravenous administration was evaluated.; format: functional; conditions: read-out: ID50 (the source's name)

Sequence of Substance-P receptor (P30547 whole entry): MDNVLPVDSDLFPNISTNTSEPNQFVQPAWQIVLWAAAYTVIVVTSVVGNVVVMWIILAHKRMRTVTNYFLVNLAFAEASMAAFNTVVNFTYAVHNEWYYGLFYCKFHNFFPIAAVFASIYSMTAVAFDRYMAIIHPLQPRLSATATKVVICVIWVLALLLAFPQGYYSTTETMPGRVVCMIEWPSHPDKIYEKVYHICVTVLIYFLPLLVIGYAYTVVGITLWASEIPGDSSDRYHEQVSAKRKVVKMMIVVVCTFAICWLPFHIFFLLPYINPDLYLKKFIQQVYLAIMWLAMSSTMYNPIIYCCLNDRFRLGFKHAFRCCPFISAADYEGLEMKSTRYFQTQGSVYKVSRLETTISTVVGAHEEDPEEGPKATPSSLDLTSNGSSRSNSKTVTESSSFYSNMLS

Row | Structure (SMILES) | IC50 (Substance-P receptor) [nM] | ED50 (Cavia porcellus) [mg/kg]
1 | CC(C)Oc1cccc(CC(=O)N2CCCC(CC[N+]34CCC(c5ccccc5)(CC3)CC4)(c3ccc(Cl)c(Cl)c3)C2)c1.[Cl-] (racemic) | 0.31 | 0.019
2 | CC(C)Oc1cccc(CC(=O)N2CCCC(CC[N+]3(Cc4ccccc4)CCC4(CC3)NCCc3ccccc34)(c3ccc(Cl)c(Cl)c3)C2)c1 (configuration not stated) | 16 | –
3 | CN(CC(CCN1CCC2(CC1)OCc1ccccc12)c1ccc(Cl)c(Cl)c1)C(=O)c1ccccc1 (configuration not stated) | 710 | –
4 | CC(C)Oc1cccc(CC(=O)N2CCCC(CCN3C4CCC3CC3(C4)OCc4ccccc43)(c3ccc(Cl)c(Cl)c3)C2)c1 (configuration not stated) | 105 | –
5 | CC(C)Oc1cccc(CC(=O)N2CCCC(CC[N+]3(C)CCC4(CC3)c3ccccc3C[S+]4[O-])(c3ccc(Cl)c(Cl)c3)C2)c1 (configuration not stated) | 6.3 | –
6 | CC(C)Oc1cccc(CC(=O)N2CCCC(CCN3CCC4(CC3)c3ccccc3C[S+]4[O-])(c3ccc(Cl)c(Cl)c3)C2)c1 (configuration not stated) | 18 | –

Further molecules by falling IC50 (Substance-P receptor), results first:

Row | IC50 (Substance-P receptor) [nM] | Structure (SMILES) | ED50 (Cavia porcellus) [mg/kg]
7 | 58 | CN(CC(CCN1CCC2(CC1)NCCc1ccccc12)c1ccc(Cl)c(Cl)c1)C(=O)c1ccccc1 (configuration not stated) | –
8 | 54 | CC(C)Oc1cccc(CC(=O)N2CCCC(CCN3CCC4(CC3)NC(=O)Cc3ccccc34)(c3ccc(Cl)c(Cl)c3)C2)c1 (configuration not stated) | –
9 | 35 | CC(C)Oc1cccc(CC(=O)N2CCCC(CC[N+]3(C)CCC4(CC3)NC(=O)Cc3ccccc34)(c3ccc(Cl)c(Cl)c3)C2)c1 (stereo in doubt; 5bb) | –
10 | 31 | CC(C)Oc1cccc(CC(=O)N2CCCC(CCN3CCC4(CC3)NCCc3ccccc34)(c3ccc(Cl)c(Cl)c3)C2)c1 (configuration not stated) | –
11 | 16 | CC(C)Oc1cccc(CC(=O)N2CCCC(CCN3CCC4(CC3)OCc3ccccc34)(c3ccc(Cl)c(Cl)c3)C2)c1 (configuration not stated) | –
12 | 4.8 | CC[N+]1(CCC2(c3ccc(Cl)c(Cl)c3)CCCN(C(=O)Cc3cccc(OC(C)C)c3)C2)CCC2(CC1)NCCc1ccccc12 (configuration not stated) | –
13 | 2 | CC(C)Oc1cccc(CC(=O)N2CCCC(CC[N+]3(C)CCC4(CC3)NCCc3ccccc34)(c3ccc(Cl)c(Cl)c3)C2)c1.[I-] (configuration not stated) | 0.049
14 | 1.9 | CC(C)Oc1cccc(CC(=O)N2CCCC(CC[N+]3(C)CCC4(CC3)NC(=O)Cc3ccccc34)(c3ccc(Cl)c(Cl)c3)C2)c1.[I-] (stereo in doubt; 5ba) | 0.024
